PubChem BioAssay (NCI)
Values joined by “and” are separate entries in the source; they are usually repeats but may differ in a detail not shown here. Equal values may be shown once.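 How tested: cells in 96-well plates exposed to compound for 48 hours at five concentrations. At the GI50, growth is halved. TGI: total growth inhibition.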

Columns and labels:
Test in all cases: inhibition of tumour cell growth, NCI panel, 48 h
CAKI-1 renal = system: CAKI-1 renal
HCT-15 colon = system: HCT-15 colon
HS 578T breast = system: HS 578T breast
K-562 leukemia = system: K-562 leukemia
NCI-H226 lung = system: NCI-H226 lung
NCI/ADR-RES ovarian = system: NCI/ADR-RES ovarian
RPMI-8226 leukemia = system: RPMI-8226 leukemia
HCC-2998 colon = system: HCC-2998 colon
MCF7 breast = system: MCF7 breast
NCI-H460 lung = system: NCI-H460 lung

SMILES	TGI (CAKI-1 renal) [µM]	TGI (HCT-15 colon) [µM]	TGI (HS 578T breast) [µM]	TGI (K-562 leukemia) [µM]	TGI (NCI-H226 lung) [µM]	TGI (NCI/ADR-RES ovarian) [µM]	TGI (RPMI-8226 leukemia) [µM]	TGI (HCC-2998 colon) [µM]	TGI (MCF7 breast)	TGI (NCI-H460 lung) [µM]	GI50 (CAKI-1 renal) [µM]	GI50 (HCC-2998 colon) [nM]	GI50 (HCT-15 colon) [µM]	GI50 (K-562 leukemia) [nM]	GI50 (MCF7 breast) [µM]	GI50 (NCI-H226 lung) [µM]	GI50 (NCI-H460 lung) [µM]	GI50 (NCI/ADR-RES ovarian) [µM]	GI50 (RPMI-8226 leukemia) [µM]
CC(C)(C)/C(O)=C\c1nc2cc(C(F)(F)F)ccc2[nH]c1=O	> 100	> 100	> 100	> 100	> 100	> 100	> 100												
CO[C@H]1O[C@@H]2CO[C@@H](c3ccccc3)O[C@H]2C[C@]12CCC/C=C\CO2	> 75	27.5	40	35.7	50.9	73.6		54.5	35.7 µM	> 75									
O=C(CCN1CCCC1)Nc1ccc2c(NCCCc3ccccc3)c3ccccc3nc2c1	28	10.5		3.36	2.83	71.9	3.63	2.43	1.8 µM	1.6	14.8	1140	2.62	945	0.467	1.27	0.46	15.1	0.611
CC(C)[Si]1(C(C)C)OCC2OC(n3ccc(=O)[nH]c3=O)C(O)(CO)C2O[Si](C(C)C)(C(C)C)O1 (centres undefined)	29.6	36.2	11.4	81.6	36.8	30.1	26.2		29.2 µM										
CCN1/C(=C/C(C)=C/c2sc3ccccc3[n+]2CC)Sc2ccccc21	0.693			1.24			4.48	0.876		0.517									
CC1OC(=O)c2ccccc2NC1=O (centres undefined)	> 100	> 100	> 100	> 100	> 100	> 100	> 100			> 100									
CCCc1c2c3ccccc3nc-2nc2ccccn12	> 100	> 100	> 100	> 100		> 100	> 100			> 100									
N#Cc1c(-c2ccc(Cl)cc2)c(C#N)c(=O)n(NS(=O)(=O)c2ccccc2)c1-c1ccccc1	> 25	> 25		> 25			> 25	> 25	> 25 µM	> 25									
O/N=C\c1cc(O)c(O)c(/C=N/O)c1	> 100	> 100	> 100	> 100	78.6	> 100	> 100		> 100 µM	> 100									
Cc1cc2c(-c3ccccc3)cc(=O)[nH]c2cc1N	> 100	> 100		> 100	> 100	> 100	> 100	> 100	> 100 µM	> 100									
C=C1C(=O)OC2/C=C(\C)C(O)/C=C\C(C)(O)CC(OC(=O)/C(C)=C/C)C12 (centres undefined)	> 66.7	33.8		> 84.6	> 100		> 68.6	> 100		> 100									
N#Cc1c(C#N)c(SSc2c(C#N)c(C#N)c(N)n2-c2ccccc2)n(-c2ccccc2)c1N	2.99	> 24.4	55.2	> 100	54.3	> 71.4		51	5.84 µM	> 89.3									
COc1cc2c(cc1OC)CCN=C2	> 100	> 100	> 100		> 100	> 100	> 100	> 100	> 100 µM	> 100									
Cc1n[nH]c(=O)n1N=C(c1ccccc1)c1ccccc1	> 100	> 100	> 100	> 100	> 100	> 100	> 100		> 100 µM	> 100									
CC1(C)CCc2c(c(N=Nc3ccccc3)c3ccccc3c2O)O1	69.1	> 100	> 100	> 100	> 100	> 100	> 100		47 µM	53.3									
CC(=O)Oc1c(OC(C)=O)c(-c2ccc(O)c(O)c2)c(O)c(O)c1-c1ccc(O)cc1	> 100	> 100		> 100	> 100	> 100	> 100	> 100	35.9 µM and > 100 µM	> 100			76.3		18.8	79.7	69.7		20
C/C(=N\Nc1ccc([N+](=O)[O-])cc1)C(=O)N(C)Nc1ccccc1		> 100		> 100	> 100		> 100	> 100		> 100									
CSCCCCCCCCCCOc1ccc(C=C2C(=C(C#N)C#N)c3ccccc3C2=C(C#N)C#N)cc1	32.3	46.8	44.6	> 100	79.9	75.7	> 100		32.3 µM	32.2									
CC1(C)CC(=O)c2c(nc3ccc4ccccc4c3c2-c2ccc(NC(=O)CCCCC(=O)Nc3ccc(-c4c5c(nc6ccc7ccccc7c46)CC(C)(C)CC5=O)cc3)cc2)C1	> 100	> 100	> 100	> 100	> 100	> 100	> 100		> 100 µM	> 100									
S=C1C=C(c2ccccc2)Sc2ccccc2N1	> 100	> 100	> 100	> 100	> 100	> 100	> 100		> 100 µM	> 100									
CCOC(=O)c1c(SCCO)n(-c2ccccc2)c(=S)n(-c2ccccc2)c1=O	> 100	> 100	> 100	> 100	> 100	> 100	> 100		> 100 µM	> 100									
COC/C=C\[C@@]1(O)CCCC[C@@H]1CC(OC)OC	> 100	> 100	> 100	> 100	> 100	> 100	70.9	> 100		> 90									
NNC(=O)c1n[nH]nc1SSc1n[nH]nc1C(=O)NN	> 100	> 100	> 100		> 100	> 100		> 100	> 100 µM	> 100									
Nc1c(C(=O)c2ccccc2)[nH]c(NCc2ccccc2)c1C(=S)Nc1ccccc1	> 100	> 100	> 100	> 100	> 100	> 100		> 100	> 100 µM	> 100									

SMILES	TGI (CAKI-1 renal) [µM]	TGI (HCT-15 colon) [µM]	TGI (HS 578T breast) [µM]	TGI (K-562 leukemia) [µM]	TGI (NCI-H226 lung) [µM]	TGI (NCI/ADR-RES ovarian) [µM]	TGI (RPMI-8226 leukemia) [µM]	TGI (HCC-2998 colon) [µM]	TGI (MCF7 breast)	TGI (NCI-H460 lung) [µM]	GI50 (CAKI-1 renal) [µM]	GI50 (HCC-2998 colon) [nM]	GI50 (HCT-15 colon) [µM]	GI50 (K-562 leukemia) [nM]	GI50 (MCF7 breast) [µM]	GI50 (NCI-H226 lung) [µM]	GI50 (NCI-H460 lung) [µM]	GI50 (NCI/ADR-RES ovarian) [µM]	GI50 (RPMI-8226 leukemia) [µM]
COc1ccc(C)cc1NC(=S)N/N=C/c1ccc(SC)cc1	> 100	> 100	> 100	> 100		> 100	76.3		> 100 µM										
O=c1c([Se]c2coc3ccccc3c2=O)coc2ccccc12	39.8	30.8		> 100	28.2		56.3	33.2		14									
COc1nc(=O)n(C2CC(N=[N+]=[N-])C(CO)O2)cc1C (centres undefined)		> 100	> 100	> 100	> 100	> 100			> 100 µM	> 100									
Cc1ccc2[nH]c3c(C)c4ccncc4c(C)c3c2c1	1.85	2.22		2.52	7.59	2.24	4.88	2.87	2.32 µM	1.77									
COc1ccc2c(c1)CC[C@@H]1C2CC[C@]2(C)C(=O)NC(=O)CC12 (some centres undefined)	> 100	> 100		> 100	> 100		> 100	> 100		> 100									
CCN(CC)CCCNC(=O)Cc1ccccc1Nc1c(Cl)cccc1Cl		29.1		21.6	38.5		29.1	11.5											
CC(=O)c1cccc(NC2C(N)C(NC(=O)N(C)C)(C(C)O)C(C)(O)C2(O)COC(=O)c2c(C)cccc2O)c1 (centres undefined)	0.0235	1.01	0.0122	0.15	0.00141	0.591		0.00295	1.13 µM										
C[C@@H]1CCC2[C@@H](C)C(=O)O[C@@H]3C4C[C@@H]1[C@@]23OO[C@@]4(C)O (some centres undefined)	> 100	> 100	> 100	> 100		> 100	> 100	> 100	> 100 µM	> 100									
Cc1ccc(/C=N/Nc2ncccn2)s1	> 100	> 100	> 100		> 100	> 100	> 100	> 100	> 100 µM										
Cc1[nH]c2ccccc2c1C=Nc1ccc(Oc2ccccc2)cc1	30.4	35	52	58.1		38.8	35.4		39.7 µM	40									
COC(=O)CCCCC/C(=C\C(=O)C(Cl)(Cl)Cl)OC	> 100	68.2	97.1	> 100		> 100	60.9	35.6	58.5 µM	76.9									
COc1ccc(C2S/C(=C\c3ccc(OC)cc3OC)C(=O)N2NC(=O)Cc2ccccc2)cc1 (centres undefined)	> 100	> 100		> 100	> 100		> 100			> 100									
CSC(=NCCN=C(NS(=O)(=O)c1ccc(Cl)cc1)SC)NS(=O)(=O)c1ccc(Cl)cc1	> 100	> 100		> 100		> 100	> 100	> 100	> 100 µM	> 100									
Cc1nc(-c2nc([N+](=O)[O-])c([N+](=O)[O-])[nH]2)cs1	> 100			> 100	> 100		> 100	> 100		> 100									
CC(=O)c1cn(-c2ccc(Cl)cc2)c(=O)c2c(N)n[nH]c12	> 100	> 100	> 100	> 100	> 100	> 100	> 100	> 100		> 100									
CC12ON=C(c3ccccc3)N1C=CN1C(c3ccccc3)=NOC12 (centres undefined)	> 100	> 100	> 100		> 100	> 100		> 100	> 100 µM	> 100									
Nc1cccc(OCc2nc(N)nc(N)c2-c2ccc(Cl)cc2)c1	> 100	> 100	> 100	> 100	79.5	> 100	> 100		> 100 µM	> 100									
COc1cc2c(cc1OC)C(Cl)C(c1cc(OC)c(OC)c(OC)c1)=C2Cl (centres undefined)	32.5	49.4		> 100	41.4		37			32.4									
N#Cc1c(NC(=S)NCc2ccccc2)sc2c1CCN(N1CCc3c(sc(NC(=S)NCc4ccccc4)c3C#N)C1)C2	> 100	> 100	> 100	> 100	> 100	> 100		> 100	> 100 µM	> 100									
CSCCC(NC(c1ccccc1)c1ccccc1)[P+](=O)O (centres undefined)	> 100	> 100	> 100	> 100	> 100	> 100	> 100		> 100 µM	> 100									
Cc1cc(=Nc2ccc3c(c2)c(N)cc(C)[n+]3C)nc(N)n1C	> 100	> 100	> 100	> 100		> 100	> 100		> 100 µM	> 100									
CCN(CC)CCNc1ccc(C)c2sc3ccc(O)cc3c(=O)c12	21.8	2.72		3.62	2		4.95	2.66		1.37									
CN1CCN(c2ccc3[nH]c(C4=C(O)c5nc(CO)n(C)c5C(=O)C4=O)nc3n2)CC1	> 100	> 100	> 100	> 100	> 100	> 100	> 100	> 100		> 100									
CCC1(C)N=C(C(N)=O)c2ncn(N=C(C)C)c2N1 (centres undefined)	> 100	> 100	> 100	> 100	> 100	> 100	> 100	> 100		> 100									
